2 molecules from patent US20040023978A1, “Active salt forms with tyrosine kinase activity” (priority 2002, published 2004) can be followed below.

Like-named read-outs stand apart in the source and are kept apart here.

Series [1] in a line: Stability of the crystal form (XRPD, hot-stage XRPD).
Description: The mesylate salt (Form A) was further studied using hot-stage XRPD. […] The dehydration could also be achieved by suspending the mesylate monohydrate in hot acetonitrile.
Series [2] in a line: Hygroscopicity, step isotherm at 25° C. In kind it is physicochemical. The note with it: 90-95% RH.
Protocol: The hygroscopicity of the mesylate salt was determined at 25° C. using a step isotherm program for relative humidities from 0 to 95% RH following drying at 40° C./0%RH for two hours.
Series [3] can be described thus: Solubility at room temperature (HPLC isocratic method). The format is physicochemical.

Regarding “1-({2-[(5-cyano-1,3-thiazol-2-yl)amino]pyridin-. 4-yl}methyl)-4-[(methylamino)carbonyl]piperazin-1-ium methanesulfonate [dehydrated mesylate salt (Form B)]”, the “stability of the form under ambient conditions” value in series [1] (ambient conditions overnight) is given as “stable”. Further, the “behaviour of the aqueous solution on aging” value in series [1] (water, aged for two days, recovered solid by XRPD the monohydrate (Form A)) is recorded as “a white precipitate was noticed”. Also, in series [2], the weight gain result is reported as “about 1.2 % wt”.
Take `CNC(=O)N1CCN(Cc2ccnc(Nc3ncc(C#N)s3)c2)CC1.CS(=O)(=O)O` [mesylate salt (Form A), 1-({2-[(5-cyano-1,3-thiazol-2-yl)amino]pyridin-4-yl}methyl)-4-[(methylamino)carbonyl]piperazin-1-ium methanesulfonate]: the solubility in series [3] (aqueous with cosolvent or surfactant or cyclodextrin, thermodynamic from solid, 10% HP-βCD, pH adjusted with 0.1 N HCl to about pH 3, room temperature, read-out: Solubility) turned out to be 27.1 mg/mL; in series [3] (aqueous with cosolvent or surfactant or cyclodextrin, thermodynamic from solid, 15% HP-βCD, pH adjusted with 0.1 N HCl to about pH 3, room temperature, read-out: Solubility), 35.3 mg/mL; in series [3] (aqueous with cosolvent or surfactant or cyclodextrin, thermodynamic from solid, 20% HP-βCD, pH adjusted with 0.1 N HCl to about pH 3, room temperature, read-out: Solubility), 40.7 mg/mL; in series [3] (aqueous with cosolvent or surfactant or cyclodextrin, thermodynamic from solid, 25% HP-βCD, pH adjusted with 0.1 N HCl to about pH 3, room temperature, read-out: Solubility), 45 mg/mL; in series [3] (aqueous with cosolvent or surfactant or cyclodextrin, thermodynamic from solid, 25% PEG/10% EtOH, room temperature, read-out: Solubility) it was 11.6 mg/mL; in series [3] (aqueous with cosolvent or surfactant or cyclodextrin, thermodynamic from solid, 30% PG/10% EtOH, room temperature, read-out: Solubility), 13.6 mg/mL. Also, the solubility worked out at 0.98 mg/mL in series [3] (organic solvent or mixture, thermodynamic from solid, Ethanol, room temperature, read-out: Solubility); 0.64 mg/mL in series [3] (organic solvent or mixture, thermodynamic from solid, IPA, room temperature, read-out: Solubility); 1.41 mg/mL in series [3] (organic solvent or mixture, thermodynamic from solid, PEG, room temperature, read-out: Solubility); 30.4 mg/mL in series [3] (organic solvent or mixture, thermodynamic from solid, PG, room temperature, read-out: Solubility); 6.65 mg/mL in series [3] (thermodynamic from solid, water, room temperature (Table I), read-out: Solubility); 4.7 mg/mL in series [3] (water (text b274), read-out: solubility in water).

Broadly, the solubility is the concentration that dissolves in the medium under given conditions.
